A short description of data set [1]: In vivo pharmacokinetics, plasma and forebrain levels by LC-MS/MS. Set-up: species or system mice. The procedure:
FIGS. 6A-6C: The ratio of the AUC of the MRM transition for 31b versus 41b was calculated and the resulting values were normalized based on total protein concentration of samples (determined by Bradford assay). N=4 per group. Data shown as SEM, analysis by one way ANOVA with Tukey's post-test. *=p<0.05. Half-life's were calculated based on first order exponential decay.
31b was administered to mice and specimens were processed according to FIG. 4A. Levels of 31b were determined in the plasma and forebrain after intraperitoneal (ip) and oral (po) administration at varying post-administration time points (1, 2, or 12 hr [N=4 per cohort]). […] A deuterated (d^4) analog of 31b, designated 41b, was synthesized for LC-MS studies. Deuterated internal standards are required for absolute quantitation via LC-MS/MS and are desirable for because they have identical physiochemical properties to their non-deuterated kin, but may be distinguished based on molecular weight. Inclusion of 41b allows for control of extraction efficiency, technique proficiency, and instrumentation sensitivity. Extraction methodology and tandem LC-MS/MS parameters (optimized MRM transitions) were developed and validated via extraction of blank brain tissue spiked with 31b and 41b to develop a calibration curve. In this initial evaluation, the appropriate forebrain and plasma samples were spiked with a fixed concentration of 41b, homogenized in extraction buffer, applied to a solid phase resin cartridge, eluted, concentrated, reconstituted, and analyzed via MRM monitoring using LC-MS/MS. […] There were no significant differences in levels of 31b in the brain (B) versus plasma (P), with an average B:P ratio of 1.6 (±0.8). […] Without wishing to be bound by theory, it is believed that low oral bioavailability of 31b is the result of rapid 1st pass metabolism, since the microsomal stability studies indicate poor hepatic stability. The use of common dosage form strategies likely results in improved oral bioavailability. Alternative administration routes, including intranasal, are also believed to result in high brain bioavailability based on the relativity high lipophilicity of the embodiments tested. […] Moreover, the physiochemical properties proposed as being appropriate for CNS drugs are appropriate. The long residence time of the furoxan (visible in the brain after 12 hr), indicates an ideal scenario for daily dosing.
Forebrain tissue (˜30 mg) was homogenized in 1 ml of tissue extraction buffer (Invitrogen) containing a protease inhibitor cocktail (PIC). 100 μL of the resulting homogenate (or 100 μL of plasma) was spiked with 2% Formic acid (200 μL, containing 41b [0.5 μM]—internal standard) and vortexed for 1 min. The mixture was applied to an Evolute Express ABN column (Biotage) and filtered through via vacuum filtration. The matrix was washed with dH2O (1 mL) and analytes eluted with MeOH (1 mL). The resulting extract was evaporated to dryness by passing over air and reconstituted in ACN/dH2O (100 μL). A 10 μL injection was analyzed by LC-MS/MS. Analysis was carried out on a Shimadzu Nexera XR HPLC coupled with a Shimadzu 8050 triple quadrupole mass spectrometer. LC utilized a Kinetex-core column (Phenomenex): 2.6 um C18 100 A, 100×4.6 mm. HPLC Method: solvents, H2O [0.1% FA]—solvent A; MeOH [0.1% FA]—solvent B; flow rate 1.0 mL/min (utilized Tsplitter, mass spectrometer effective flow rate 0.4 mL/min). Gradient: t=2 min, 5% B; t=6 min, 95% B; t=7.0 min, 95% B; t=7.01, 5% B. Stop time 10 min. Diverter valve was utilized and eluent only averted to MS from 5 min-8 min. Quantity was determined based on the AUC of the internal standard versus the AUC of the analyte peak.

Data set [2] relates to Male C57BL/6 mice. In words: Step-through passive avoidance (STPA), scopolamine-induced amnesia. In kind it is in vivo. The procedure: FIGS. 4A-4B: STPA experimental timeline (FIG. 4A), and results of Male C57BL/6 mice administered either vehicle or 31b via i.p. injection at 60 min or 120 min prior to training in STPA (FIG. 4B). […] Memory retention was measured as latency to enter the dark compartment 24 h after training. Data represented as mean and s.e.m.
The STPA apparatus consisted of an acrylic box with an illuminated compartment connected to a darkened compartment by a small guillotine door. Mice were placed in the illuminated side and were trained against their natural tendency to translocate to the dark side using an aversive stimulus (shock via electrified floor grading). Memory consolidation is measured as the latency times to enter the dark compartment 24 hr after training.
All procedures were performed under the approved IACUC protocol #108451. Male C57BL/6 mice (Envigo), N=9 per group, were habituated at the animal facility for at least 14 days. Ear tags were applied and animals weighed. 2 hr prior to the drug adminstration the mice were individually acclimated to the illuminated compartment to assess tendency to enter the dark chamber (measured in seconds). In this phase no shock was be delivered. […] The mice were then administered either vehicle (95 [0.9% NaCl]:5 [DMSO]) or 31b (0.1, 1, 10, or 20 mg/kg) via i.p. injection (50 μL) at 1 h or 2 h prior to training. […] Mice were individually placed into the light compartment and upon translocation to the dark compartment the guiltine door closed and the mice were trained by delivering a mild adversive stimulus (0.5 mA) via the electrified floor grading of the dark chamber. Each mouse was held in the dark chamber for 30 seconds, then returned to their cage for 120 seconds before the second training session. […] Memory retention was measured 24 hours after training by placing the same mouse in the light chamber and measuring latency to enter the dark chamber (no aversive stimulus is delivered during the retention test). Data was analyzed by one way ANOVA analysis with Dunnett's post-hoc test.

Data set [3] relates to pCREB. In words: pCREB modulation in PC-12 cells (without insult, with OGD, L-NAME). The class given is cell-based. The note with it: 31b 25 μM, 48 hr incubation. The procedure:
FIGS. 3A-3C: Neuroprotection (FIG. 3A), MTT treatment was used to assess cell viability (FIG. 3B), and pCREB modulation (FIG. 3C) of furoxan compounds. Neuroprotection assay workflow: expose PC12 cells to oxygen glucose deprivation (OGD) for 90 min→reoxygenate and add furoxan (1, 10, or 25 μM)→incubate for 24 hr→MTT readout of viability. Data represented as mean and s.e.m. (n=3). *=p<0.05, **=p<0.01, ***=p<0.001 compared to vehicle control using one way ANOVA analysis with Dunnett's post-hoc test. Red dashed line indicates threshold of vehicle effects. For pCREB modulation, 31b (25 μM) was examined (PC-12 cells, 48 hr incubation) in the following: without insult, with OGD, L-NAME.

Entries after “also recorded” stand apart in the source; their conditions may differ.

For the molecule `CC1CCN(Cc2no[n+]([O-])c2-c2ccc(F)cc2)CC1` [31b], the “Amounts in ip-treated mice compared to oral gavage” value in data set [1] (mice) is given as “significantly higher amounts in ip-treated mice”. Moreover, in data set [1] (mice, ip and po), the “Levels in plasma and forebrain after 12 h” value is recorded as “detectable levels”. In addition, the Oral bioavailability entry in data set [1] (mice, po) is given as “low”. Also, the Kp in data set [1] (mouse, forebrain versus plasma, other: intraperitoneal (ip) and oral (po), averaged together, mice, read-out: Average B:P ratio (brain versus plasma)) amounted to 1.6. Moreover, the Brain penetration entry in data set [1] (mouse, in vivo) is recorded as “significant brain penetration”. In data set [1] (mouse, plasma and forebrain, intraperitoneal and oral, mice, ip and po, first order exponential decay, read-out: In vivo t1/2 for brain and plasma), the half-life was 0.833 to 1.83 h. For the same molecule, the “Latency to enter the dark compartment” value in data set [2] (20 mg/kg i.p. 2 hr prior to training, scopolamine 1 mg/kg i.p. 30 min prior to training, 24 hr after training) is 237 s. Also, the “Reversal of scopolamine induced amnesia / memory impairment in STPA” value in data set [2] (mice, i.p., scopolamine 1 mg/kg) is reported as “reverses scopolamine induced memory impairment; also recorded: capable of reversing scopolamine induced amnesia”. The “Effects of NOS inhibition on pCREB” value in data set [3] is listed as “reverses the effects of NOS inhibition on pCREB”.

These data come from patent US10913732B2, “Furoxans as therapies for neurodegenerative disorders” (The University of Toledo, priority 2016, dated 2021).
